For orientation: Ki means the equilibrium dissociation constant of an inhibitor or competing ligand from its target.

SMILES strings stand for the structures.

The target of one assay is TAAR1 (Mus musculus (Mouse), UniProt Q923Y8). The assay is described as follows: TAAR1 radioligand binding assay ([3H]-rac-2-(1,2,3,4-tetrahydro-1-naphthyl)-2-imidazoline, membranes of stably transfected HEK293 cells).
Chain of TAAR1 (Q923Y8 whole entry): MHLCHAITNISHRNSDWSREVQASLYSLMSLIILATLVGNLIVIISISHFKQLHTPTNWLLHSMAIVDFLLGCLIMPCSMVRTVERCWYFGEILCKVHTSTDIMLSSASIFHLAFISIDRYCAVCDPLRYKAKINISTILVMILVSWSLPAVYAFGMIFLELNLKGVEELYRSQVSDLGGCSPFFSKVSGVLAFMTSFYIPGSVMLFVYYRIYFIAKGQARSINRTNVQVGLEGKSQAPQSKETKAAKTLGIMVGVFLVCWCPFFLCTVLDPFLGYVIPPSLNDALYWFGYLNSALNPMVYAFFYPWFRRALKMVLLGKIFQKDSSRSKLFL
Conditions: not given
As for `CCN(Cc1cnc[nH]1)c1cccc(C(F)(F)F)n1` [Example 251, Ethyl-(1H-imidazol-4-ylmethyl)-(6-trifluoromethyl-pyridin-2-yl)-amine], the Ki worked out at 0.009 µM.

Staying with this assay, now noted: read-out: Ki (μM) mouse; mouse TAAR1; radioligand [3H]-rac-2-(1,2,3,4-tetrahydro-1-naphthyl)-2-imidazoline at 60 nM; 4° C., 30 minutes.
`CCN(Cc1cnc[nH]1)c1cccc(OCc2ccccc2)c1` [Example 192, (3-Benzyloxy-phenyl)-ethyl-(3H-imidazol-4-ylmethyl)-amine]: the Ki was 0.001 µM.

With `CCN(Cc1cnc[nH]1)c1cccc(OC)c1` [Example 193, Ethyl-(3H-imidazol-4-ylmethyl)-(3-methoxy-phenyl)-amine], the Ki turned out to be 0.008 µM.

Take `CCN(Cc1cnc[nH]1)c1ccc(F)c(OC)c1` [Example 194, Ethyl-(4-fluoro-3-methoxy-phenyl)-(3H-imidazol-4-ylmethyl)-amine]: the Ki is 0.0048 µM.

As to `CCN(Cc1cnc[nH]1)c1cccc(OC(F)F)c1` [Example 195, (3-Difluoromethoxy-phenyl)-ethyl-(3H-imidazol-4-ylmethyl)-amine], the Ki came to 0.0042 µM.

Take `Clc1cccc(Oc2cccc(NCc3cnc[nH]3)c2)c1` [Example 200, [3-(3-Chloro-phenoxy)-phenyl]-(3H-imidazol-4-ylmethyl)-amine]: the Ki was determined as 0.0028 µM.

Turning to `Fc1ccc(NCc2cnc[nH]2)cc1Oc1ccccc1` [Example 202, (4-Fluoro-3-phenoxy-phenyl)-(3H-imidazol-4-ylmethyl)-amine], the Ki worked out at 0.0084 µM.

Take `COc1cc(N(Cc2cnc[nH]2)C(C)C)ccc1Cl` [Example 204, (4-Chloro-3-methoxy-phenyl)-(3H-imidazol-4-ylmethyl)-isopropyl-amine]: the Ki was determined as 0.005 µM.

For `CC(C)N(Cc1cnc[nH]1)c1cccc(Oc2cccc(Cl)c2)c1` [Example 206, [3-(3-Chloro-phenoxy)-phenyl]-(3H-imidazol-4-ylmethyl)-isopropyl-amine], the Ki came to 0.005 µM.

With `CC(C)N(Cc1cnc[nH]1)c1cccc(COc2ccccc2)c1` [Example 207, (3H-Imidazol-4-ylmethyl)-isopropyl-(3-phenoxymethyl-phenyl)-amine], the Ki was 0.002 µM.

`CC(C)N(Cc1cnc[nH]1)c1ccc(F)c(Oc2ccccc2)c1` [Example 208, (4-Fluoro-3-phenoxy-phenyl)-(3H-imidazol-4-ylmethyl)-isopropyl-amine]: the Ki was 0.003 µM.

Consider `Brc1cccc(NCc2cnc[nH]2)c1` [Example 225, (3-Bromo-phenyl)-(3H-imidazol-4-ylmethyl)-amine], for which the Ki stood at 0.001 µM.

On to `FC(F)(F)c1cc(Br)cc(NCc2cnc[nH]2)c1` [Example 226, (3-Bromo-5-trifluoromethyl-phenyl)-(3H-imidazol-4-ylmethyl)-amine], for which the Ki was determined as 0.001 µM.

`CC(C)c1cccc(NCc2cnc[nH]2)c1` [Example 228, (3H-Imidazol-4-ylmethyl)-(3-isopropyl-phenyl)-amine]: the Ki is 0.002 µM.

On to `CCN(Cc1cnc[nH]1)c1nc(Cl)cc(Cl)n1` [Example 237, (4,6-Dichloro-pyrimidin-2-yl)-ethyl-(1H-imidazol-4-ylmethyl)-amine], for which the Ki was 0.004 µM.

On to `CC(C)N(Cc1cnc[nH]1)c1cccc(Br)c1` [Example 242, (3-Bromo-phenyl)-(3H-imidazol-4-ylmethyl)-isopropyl-amine], for which the Ki is 0.001 µM.

As for `CC(C)N(Cc1cnc[nH]1)c1cccc(Br)n1` [Example 244, (6-Bromo-pyridin-2-yl)-(3H-imidazol-4-ylmethyl)-isopropyl-amine], the Ki is 0.004 µM.

On to `CCN(Cc1cnc[nH]1)c1ccc(Cl)c(Cl)c1` [Example 247, (3,4-Dichloro-phenyl)-ethyl-(1H-imidazol-4-ylmethyl)-amine], for which the Ki is 0.001 µM.

On to `CCN(Cc1cnc[nH]1)c1cccc(Br)c1` [Example 275, (3-Bromo-phenyl)-ethyl-(3H-imidazol-4-ylmethyl)-amine], for which the Ki was 0.001 µM.

As for `Fc1cc(F)cc(NCc2cnc[nH]2)c1` [Example 277, (3,5-Difluoro-phenyl)-(1H-imidazol-4-ylmethyl)-amine], the Ki was determined as 0.006 µM.

As for `Brc1ccc(NCc2cnc[nH]2)cc1Br` [Example 279, (3,4-Dibromo-phenyl)-(1H-imidazol-4-ylmethyl)-amine], the Ki is 0.004 µM.

In the case of `Fc1ccc(NCc2cnc[nH]2)cc1Cl` [Example 281, (3-Chloro-4-fluoro-phenyl)-(1H-imidazol-4-ylmethyl)-amine], the Ki was 0.004 µM.

On to `CN(Cc1cnc[nH]1)c1cccc(Br)c1` [Example 284, (3-Bromo-phenyl)-(3H-imidazol-4-ylmethyl)-methyl-amine], for which the Ki came to 0.002 µM.

For `CN(Cc1cnc[nH]1)c1ccc(F)c(F)c1` [Example 287, (3,4-Difluoro-phenyl)-(1H-imidazol-4-ylmethyl)-methyl-amine], the Ki came out at 0.007 µM.

Turning to `CN(Cc1cnc[nH]1)c1ccc(Cl)c(Cl)c1` [Example 288, (3,4-Dichloro-phenyl)-(1H-imidazol-4-ylmethyl)-methyl-amine], the Ki was found to be 0.002 µM.

As for `CN(Cc1cnc[nH]1)c1cc(Cl)cc(Cl)c1` [Example 291, (3,5-Dichloro-phenyl)-(1H-imidazol-4-ylmethyl)-methyl-amine], the Ki stood at 0.001 µM.

On to `CN(Cc1cnc[nH]1)c1cc(F)cc(F)c1` [Example 292, (3,5-Difluoro-phenyl)-(1H-imidazol-4-ylmethyl)-methyl-amine], for which the Ki came to 0.007 µM.

Consider `CC(C)N(Cc1cnc[nH]1)c1ccc(Br)cc1` [Example 296, (4-Bromo-phenyl)-(1H-imidazol-4-ylmethyl)-isopropyl-amine], for which the Ki was found to be 0.004 µM.

On to `CC(C)N(Cc1cnc[nH]1)c1ccc(Br)c(Br)c1` [Example 297, (3,4-Dibromo-phenyl)-(1H-imidazol-4-ylmethyl)-isopropyl-amine], for which the Ki was found to be 0.001 µM.

On to `CCN(Cc1cnc[nH]1)c1ccc(Br)cc1` [Example 302, (4-Bromo-phenyl)-ethyl-(1H-imidazol-4-ylmethyl)-amine], for which the Ki came out at 0.003 µM.

Turning to `CCN(Cc1cnc[nH]1)c1cc(Cl)cc(Cl)c1` [Example 303, (3,5-Dichloro-phenyl)-ethyl-(1H-imidazol-4-ylmethyl)-amine], the Ki turned out to be 0.001 µM.

In the case of `CCN(Cc1cnc[nH]1)c1ccc(Br)c(F)c1` [Example 305, (4-Bromo-3-fluoro-phenyl)-ethyl-(1H-imidazol-4-ylmethyl)-amine], the Ki is 0.002 µM.

With `CCN(Cc1cnc[nH]1)c1cc(F)cc(F)c1` [Example 306, (3,5-Difluoro-phenyl)-ethyl-(1H-imidazol-4-ylmethyl)-amine], the Ki stood at 0.002 µM.

On to `CCN(Cc1cnc[nH]1)c1ccc(Cl)c(F)c1` [Example 307, (4-Chloro-3-fluoro-phenyl)-ethyl-(1H-imidazol-4-ylmethyl)-amine], for which the Ki turned out to be 0.002 µM.

In the case of `CCN(Cc1cnc[nH]1)c1cc(F)cc(Cl)c1` [Example 308, (3-Chloro-5-fluoro-phenyl)-ethyl-(1H-imidazol-4-ylmethyl)-amine], the Ki was 0.001 µM.

Turning to `CCN(Cc1cnc[nH]1)c1ccc(F)c(Br)c1` [Example 309, (3-Bromo-4-fluoro-phenyl)-ethyl-(1H-imidazol-4-ylmethyl)-amine], the Ki was determined as 0.003 µM.

As to `CCN(Cc1cnc[nH]1)c1ccc(F)c(Cl)c1` [Example 312, (3-Chloro-4-fluoro-phenyl)-ethyl-(1H-imidazol-4-ylmethyl)-amine], the Ki was found to be 0.001 µM.

For the compound `CCN(Cc1cnc[nH]1)c1ccc(Cl)c(OC)c1` [Example 324, (4-Chloro-3-methoxy-phenyl)-ethyl-(1H-imidazol-4-ylmethyl)-amine], the Ki was 0.002 µM.

Turning to `Clc1cc(NCc2cnc[nH]2)ccc1Br` [Example 325, (4-Bromo-3-chloro-phenyl)-(1H-imidazol-4-ylmethyl)-amine], the Ki came to 0.002 µM.

`FC(F)(F)Oc1ccc(NCc2cnc[nH]2)cc1Cl` [Example 327, (3-Chloro-4-trifluoromethoxy-phenyl)-(1H-imidazol-4-ylmethyl)-amine]: the Ki is 0.002 µM.

As for `CC(C)N(Cc1cnc[nH]1)c1ccc(Br)c(Cl)c1` [Example 331, (4-Bromo-3-chloro-phenyl)-(1#H!-imidazol-4-ylmethyl)-isopropyl-amine], the Ki worked out at 0.001 µM.

For the compound `CCN(Cc1cnc[nH]1)c1ccc(OC(F)(F)F)c(Cl)c1` [Example 333, (3-Chloro-4-trifluoromethoxy-phenyl)-ethyl-(1H-imidazol-4-ylmethyl)-amine], the Ki came out at 0.001 µM.

The record behind these values is patent US8586617B2, “Aminomethyl-4-imidazoles” (Hoffmann-La Roche Inc., priority 2006, dated 2013).
